Literature values as cited in patent US20240180834A1, “DEVELOPMENT OF COVID-19 VACCINE USING A DUAL TLR LIGAND LIPOSOME ADJUVANT” (priority 2021, published 2024).

Conditions: earlier work

## CCCCCCCCCCCCCCCCCC(=O)NCCCCOn1c(CCCC)nc2c(N)nc3ccccc3c21 [3M-052, N-[4-(4-amino-2-butylimidazo[4,5-c]quinolin-1-yl)oxybutyl]octadecanamide]
  type of immune response elicited by the TLR agonist in the nanoliposome adjuvant: elicited a robust systemic Th1 response
